This note sets out measurements from PubChem BioAssay (NCI).

Holding throughout (assay): NCI tumour cell line growth inhibition, 48 h
Experiment [1] has as its system A498 renal.
The subject of experiment [2] is EKVX NSCLC.
Experiment [3] relates to IGROV1 ovarian.
Experiment [4] relates to M14 melanoma.
Experiment [5] deals with OVCAR-3 ovarian.
Experiment [6] deals with SF-295 CNS.
In experiment [7] the test system is SK-MEL-28 melanoma.
Experiment [8] relates to SK-MEL-5 melanoma.
The subject of experiment [9] is SK-OV-3 ovarian.
The test system of experiment [10] is TK-10 renal.

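The compound was tested at five concentrations on cells cultured in 96-well plates, with a 48-hour exposure period. Abbreviation: GI50, concentration required for 50% inhibition of growth. TGI is the concentration that stops growth completely.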 A value given as a limit tells only on which side of the number the result lay.

Take `O=[N+]([O-])c1ccc(C[P+](c2ccccc2)(c2ccccc2)c2ccccc2)cc1`: the TGI in experiment [1], in experiment [2], in [3], in experiment [4], in experiment [5] and in experiment [6] was above 100 µM throughout. Also, the TGI in experiment [7], in experiment [8], in experiment [9] and in experiment [10] was above 100 µM throughout.

With `CC1=C(c2ccccc2)C(c2ccccc2)=C(c2ccccc2)C2(c3ccccc3)C(=O)C(C)CN12` (configuration not stated), the TGI is above 100 µM in [1]; above 100 µM in [2]; above 100 µM in experiment [3]; above 100 µM in [4]; above 100 µM in [5]; 37.7 µM in experiment [6]. Also, the TGI in experiment [7], in experiment [8] and in [9] was above 100 µM throughout.

Take `O=C1C(Cl)=C(Nc2cccc(Cl)c2)C(=O)N1Cc1ccc(Cl)cc1`: the GI50 in experiment [1] is 1.55 µM; in experiment [2], 6.78 µM; in experiment [3], 1.19 µM; in experiment [4] it was 2.11 µM; in experiment [5], 0.784 µM; in [6], 0.532 µM. Besides, the GI50 is 3.12 µM in [7], 0.66 µM in [8], 6.34 µM in experiment [9] and 3.37 µM in experiment [10]. For the same compound, the TGI in [1] is 11.9 µM; in experiment [2], 23.7 µM; in [3], above 39.3 µM; in experiment [4] it was 9.94 µM; in experiment [5], 6.24 µM; in experiment [6] it was 15.6 µM. The TGI was 23.5 µM in experiment [7], 4.32 µM in [8], 24.6 µM in experiment [9] and 15.4 µM in [10].

On to `CC(C)Cn1cnc2c(SCc3ccc(Cl)cc3Cl)nc(N)nc21`, for which the TGI in [1] is 49.5 µM; in experiment [2], above 100 µM; in experiment [3] it was above 100 µM; in [4], above 100 µM; in experiment [5], above 100 µM; in experiment [6] it was above 100 µM. Besides, the TGI in experiment [7] was above 100 µM; in [8] it was 22.8 µM; in experiment [9], above 100 µM; in [10] it was above 100 µM.

As for `CCc1ccccc1NC(=O)C1=C(C)NC(C)=C(C(=O)Nc2ccccc2CC)C1c1ccccc1Cl`, the TGI in experiment [1], in [2], in [3], in experiment [4], in experiment [5] and in [6] was above 100 µM throughout. In addition, the TGI in [7], in experiment [8], in [9] and in [10] was above 100 µM each time.

`COc1ccc2[nH]cc(-c3ccc(-c4c[nH]c5ccc(OC)cc45)s3)c2c1`: the GI50 in experiment [1] was 3.58 µM; in [2] it was 8.33 µM; in experiment [3] it was 8.72 µM; in experiment [4], 6.36 µM; in experiment [5] it was 10.7 µM; in experiment [6], 2.8 µM. The GI50 in experiment [7] is 12.6 µM; in [8], 5.05 µM; in [9] it was 14.7 µM; in [10], 6.29 µM. Moreover, the TGI stood at 14.3 µM in [1]; 26.9 µM in experiment [2]; 51 µM in [3]; 18.4 µM in [4]; 27.5 µM in [5]; 8.47 µM in experiment [6]. Moreover, the TGI in experiment [7] was above 50.2 µM; in experiment [8], 17.6 µM; in experiment [9], 39.8 µM; in experiment [10], 21.3 µM.

For `C[C@H](NC(=O)[C@@H](C)N)[C@H](Oc1ccc2c(cnn2-c2ccc(F)cc2)c1)c1ccc2c(c1)OCCO2`, the GI50 was 11.5 µM in [1]; 1.04 µM in experiment [2]; 1.84 µM in [3]; 1.68 µM in experiment [4]; 2.37 µM in [5]; 1.95 µM in experiment [6]. Moreover, the GI50 in [7] is 1.75 µM; in [8], 1.52 µM; in experiment [9], 0.208 µM; in [10] it was 2.22 µM. Further, the TGI came out at 24.4 µM in [1]; 12.1 µM in experiment [2]; 5.07 µM in experiment [3]; 3.3 µM in experiment [4]; 6.98 µM in [5]; 3.9 µM in [6]. The TGI in experiment [7] was determined as 3.4 µM; in experiment [8] it was 2.94 µM; in experiment [9], 13.5 µM; in [10], 5.25 µM.

For `N#CC1(C#N)C2(c3ccccc3)OC(c3ccccc3)(c3cc4ccccc4cc32)C1(C#N)C#N`, the TGI in [1] was determined as 35.1 µM; in experiment [2] it was 32.1 µM; in experiment [3], 31.2 µM; in [4], 31.6 µM; in experiment [5], 28.5 µM; in [6] it was 29.9 µM. In addition, the TGI is 26.1 µM in [7], 27.8 µM in experiment [8], 37.4 µM in [9] and 41 µM in experiment [10].

`Clc1nc(Cl)c2ncn(CC3(Cn4cnc5c(Cl)nc(Cl)nc54)COC3)c2n1`: the GI50 was 1.78 µM in experiment [1]; 0.821 µM in [2]; 0.209 µM in experiment [3]; 0.274 µM in [4]; 0.202 µM in experiment [5]; 1.56 µM in [6]. Moreover, the GI50 in experiment [7] was 0.212 µM; in [8], 0.259 µM; in experiment [9], 1.61 µM; in experiment [10] it was 0.601 µM. Besides, the TGI came out at 3.46 µM in experiment [1]; 2.43 µM in experiment [2]; 0.405 µM in experiment [3]; 0.753 µM in [4]; 0.36 µM in experiment [5]; 3.1 µM in experiment [6]. Further, the TGI was determined as 0.396 µM in experiment [7], 0.855 µM in experiment [8], 2.98 µM in [9] and 1.2 µM in experiment [10].

As for `COc1cccc(N2CCN(CC(=O)N3CCN(c4nnc(-c5ccc(Cl)cc5)c(-c5ccc(Cl)cc5)n4)CC3)CC2)c1`, the GI50 in [1] is 19.6 µM; in experiment [2], 12.3 µM; in [3], 11.1 µM; in experiment [4], 30.2 µM; in experiment [5] it was 36.9 µM; in [6], 28.9 µM. Besides, the GI50 in experiment [7] is above 100 µM; in [8], 8.55 µM; in [9], 22 µM; in [10], 17.3 µM. Also, the TGI in experiment [1] was 52.1 µM; in experiment [2], 93.7 µM; in experiment [3] it was 84.7 µM; in [4], above 100 µM; in [5] it was above 100 µM; in experiment [6], above 100 µM. Further, the TGI was above 100 µM in [7], above 100 µM in [8], 77.6 µM in experiment [9] and 85.9 µM in experiment [10].

Regarding `O.O.[NH-]C1(C(=O)O)CCCC1.[NH-]C1(C(=O)O)CCCC1.[Ni+2]`, the TGI in [1], in experiment [2], in [3], in experiment [4], in experiment [5] and in experiment [6] was above 100 µM throughout. For the same compound, the TGI in experiment [7], in experiment [8], in experiment [9] and in [10] was above 100 µM throughout. Moreover, the figures for the GI50 in experiment [4] and in experiment [10] were 96.7 µM and above 100 µM, respectively.

On to `COc1cc(C(O)CCBr)c(OC)cc1C` (configuration not stated), for which the TGI in experiment [1] was above 100 µM; in [2], above 100 µM; in experiment [3] it was above 100 µM; in [4], 33.9 µM; in experiment [5], 44.1 µM; in experiment [6], above 73.1 µM. The TGI is above 100 µM in experiment [7], above 38 µM in experiment [8], above 73.6 µM in [9] and above 100 µM in experiment [10].

Turning to `CN(/N=C/c1cccc2cccnc12)c1ccc([N+](=O)[O-])cc1[N+](=O)[O-]`, the TGI in [1] was 43.7 µM; in [2] it was above 95 µM; in experiment [3], 70.8 µM; in [4], above 94.4 µM; in [5] it was 39.8 µM; in experiment [6] it was 33 µM. The TGI was above 100 µM in [7], above 100 µM in [8], 52.8 µM in experiment [9] and 54 µM in experiment [10].

Take `COC(=O)C1CC23CCCN4CCC5(c6ccccc6N(C=O)C15CC2)C43` (configuration not stated): the TGI in experiment [1], in experiment [2], in experiment [3], in experiment [4], in experiment [5] and in [6] was above 100 µM throughout. The TGI in experiment [7], in experiment [8], in experiment [9] and in experiment [10] was above 100 µM each time.

As to `O=C(O)CN(CC(=O)O)Cc1cc(C#Cc2ccc(C#Cc3ccccc3)cc2)cc(CN(CC(=O)O)CC(=O)O)n1`, the TGI was above 100 µM in experiment [1]; above 86.8 µM in [2]; 78.1 µM in [3]; above 76.6 µM in experiment [4]; above 39.9 µM in experiment [5]; above 88.9 µM in experiment [6]. Besides, the TGI was above 100 µM in [7], above 71.5 µM in experiment [8], above 100 µM in experiment [9] and above 86.2 µM in experiment [10].

Take `O/N=C1/C(=C/c2ccc3c(c2)OCO3)CCCC1C(NO)c1ccc2c(c1)OCO2` (configuration not stated): the TGI in experiment [1] turned out to be 79 µM; in experiment [2], 89.1 µM; in experiment [3], 86.5 µM; in experiment [4] it was 36.9 µM; in experiment [5], 30.6 µM; in [7], 40.1 µM. The TGI is 32.3 µM in [8], 94 µM in experiment [9] and 71.6 µM in experiment [10].

Consider `COc1ccc(C(=S)N2CCN(c3cccc(C)c3)CC2)cc1OC`, for which the GI50 in experiment [1] was 4.85 µM; in [2] it was 7.05 µM; in experiment [4], 3.18 µM; in experiment [5] it was 2.06 µM; in [6], 4.26 µM; in experiment [7], 5.42 µM. For the same compound, the GI50 in experiment [8] is 4.55 µM; in experiment [9], 7.24 µM; in experiment [10], 7.99 µM. For the same compound, the TGI was above 100 µM in experiment [1]; above 100 µM in experiment [2]; above 100 µM in experiment [4]; 5.16 µM in experiment [5]; 44.8 µM in experiment [6]; above 100 µM in experiment [7]. Besides, the TGI in experiment [8], in experiment [9] and in experiment [10] was above 100 µM throughout.

Turning to `O=C1N(C2CCCCC2)CC12CCCCC2`, the TGI in experiment [1], in experiment [2], in experiment [3], in experiment [4], in [7] and in [8] was above 100 µM throughout. Further, the TGI in experiment [9] and in experiment [10] was above 100 µM each time.

Regarding `COc1cc(/C=C\c2cc(OC)c(OC)c(OC)c2)cc(NC(=O)/C=C/c2cc(OC)c(OC)c(OC)c2)c1OC`, the GI50 is 5.21 µM in [1]; 15.7 µM in [2]; 6.61 µM in experiment [3]; 3.78 µM in experiment [4]; 10.8 µM in [5]; 3.51 µM in experiment [7]. Further, the figures for the GI50 in experiment [8], in [9] and in experiment [10] were 1.66 µM, 6.62 µM and 6.72 µM, respectively. For the same compound, the TGI in experiment [1], in experiment [2], in experiment [3], in experiment [4], in experiment [5] and in [7] was above 100 µM throughout. In addition, the values for the TGI in experiment [8], in [9] and in experiment [10] were 3.97 µM, above 100 µM and above 100 µM, respectively.

As for `C=C1C(=O)O[C@H]2[C@H]1CC/C(CNC(=O)/C=C/c1cc(OC)c(OC)c(OC)c1)=C\CC[C@@]1(C)O[C@@H]21`, the GI50 in experiment [1] was 4.1 µM; in experiment [2] it was 2.22 µM; in [3], 3.22 µM; in experiment [4], 1.21 µM; in experiment [5], 0.333 µM; in experiment [6], 4.61 µM. Moreover, the results for the GI50 in [7], in experiment [8] and in experiment [9] were 1.43 µM, 2.49 µM and 17.2 µM, respectively. The TGI turned out to be 15.7 µM in experiment [1]; 13.8 µM in experiment [2]; 13.9 µM in experiment [3]; 2.87 µM in experiment [4]; 1.44 µM in [5]; 18.2 µM in [6]. In addition, the TGI in experiment [7] was 3.64 µM; in experiment [8] it was 7.33 µM; in experiment [9], 33.3 µM.
